Values quoted from earlier work in patent US20100144626A1, “Treatment of Multi-Drug Resistant Bacterial Infections” (priority 2006, published 2010).
Converted amounts (≈) assume the structure as drawn.

Legend:
[1] = in vivo; cited from earlier work
[2] = in vivo, cited from earlier work
[3] = in vivo, cited from earlier work; remark: listed apart in the source
MRSA = conditions: cited from earlier work

Question: Which “concentration in the stratum corneum” value [1] does the source give for Clc1ccccc1C(c1ccccc1)(c1ccccc1)n1ccnc1 [Clotrimazole, 1-[(2-chlorophenyl)diphenylmethyl]-1H-imidazole] here?
Answer: Its value is 100 mcg/cm3.

Question: What about the “concentration in the stratum reticulare” value [1] of the same compound?
Answer: The value was 0.5-1 mcg/cm3.

Question: And the “concentration in the subcutis” value [1]?
Answer: Its value is 0.1 mcg/cm3.

Question: And the “administered dose detected in urine as active drug” value ([2]; po)?
Answer: The value was “Less than 1%”.

Question: What about the half-life ([2]; po) of the same compound?
Answer: The half-life was “around 3 hours”.

Question: What about the “absorption following oral administration” value [2] of the same compound?
Answer: Its value is “well absorbed”.

Question: With Clc1ccc(COC(Cn2ccnc2)c2ccc(Cl)cc2Cl)cc1 (stereo not shown) [Econazole] as the compound, how does the “tolerability of single oral dose” value ([3]; po) read?
Answer: Its value is “tolerated”.

Question: And the number of metabolites [3]?
Answer: The number of metabolites was “more than 20”.

Question: Which “anti-MRSA activity in presence of lipophilic a-tocopherol (vitamin E)” value (MRSA; Lee et al. 1999) does the source give for Clc1ccc(COC(Cn2ccnc2)c2ccc(Cl)cc2Cl)c(Cl)c1 (stereo not shown) [Miconazole, 1-[2-(2,4-dichlorophenyl)-2-[(2,4-dichlorophenyl)methoxy]ethyl]-1H-imidazole] here?
Answer: The value was “completely suppressed”.

Question: And the “minimum inhibitory concentration against MRSA” value (MRSA; Lee et al., J. Microbiol. Biotechnol. 9 (1999), estimated)?
Answer: The value was 0.78 µg/mL (≈ 1.87 µM).
